Source: patent US9315532B2, “Fatty acid carbohydrate hybrid molecules as therapeutic agents and methods thereof” (The Johns Hopkins University, priority 2005, dated 2016)

Legend:
[1] = system: sialic acid biosynthesis in Jurkat cells; experiment: Assay for total sialic acid production (periodate-resorcinol); type: cell-based, human; settings: 50 and 100 mM, 48 h
Experimental: Jurkat cells (5.0×10^6 cells in 10 mL medium) were incubated with 1-5 at various concentrations. […] The cell lysates were analyzed by using an adapted version of the periodate-resorcinol assay (36, 59) with the periodic acid oxidation step performed on ice to allow quantification of total (i.e., free monosaccharide plus glycoconjugate-bound) sialic acid. For each assay, a standard curve was obtained using N-acetylneuraminic acid (Pfanstiehl, Waukegan, Ill.) for calibration.

Jurkat cells [2] = experiment: Toxicity of sodium butyrate (5) towards cells primed with ManNAc; type: cell-based, human
Experimental: Jurkat cells (5.0×10^5 per mL) were incubated with PBS and ManNAc at 50 or 100 mM. After 48 h, the cells were counted, harvested, washed once in fresh medium and plated in a 24-well plate containing various concentrations of sodium butyrate (5) (0-2.0 mM; a stock solution of 200 mM in PBS was used for dilutions and control samples). Cell cultures were maintained and growth was monitored for 15 days as described above under the toxicity and growth inhibition assays.

Jurkat cells [3] = experiment: Toxicity and growth inhibition assays (cell counts on days 3, 5 and 15); type: cell-based, human; settings: Jurkat cells, 0-320 μM
Experimental: For cell culture studies, But4ManNAc (1) (50) was used as a mixture of anomers (α/β=10/90), But4GlcNAc (2) as pure α-anomer and But5Man (3) as pure β-anomer (It is noteworthy that the intracellular hydrolysis of butyrate esters makes the anomeric configuration less relevant in these studies and we found similar cellular effects between the α- and β-anomers in long term toxicity). Stock solutions of the sugar analogs were made in ethanol at concentrations of 10 mM and 50 mM. In the case of cells growing in suspension the solutions of 1-4 (or an ethanol control at an equivalent volume) were coated onto dishes and the ethanol was allowed to evaporate prior to plating. Unless otherwise noted, throughout this study Jurkat cells (Clone E-6, ATCC, Manassas, Va.) were cultured in RPMI 1640 medium supplemented with 300 mg/L glutamine, 5.0% fetal bovine serum (HyClone, Logan, Utah) and 1.0% of a 100× dilution of a pen/strep stock solution containing penicillin (100 units/mL) and streptomycin (100 μg/mL); HL-60 cells (ATCC, Manassas, Va.) were cultured in RPMI 1640 medium supplemented with 10% FBS and pen/strep; and AD293 (HEK) cells (Stratagene, La Jolla, Calif.) were grown in DMEM medium with 10% FBS and pen/strep. In all cases, cells were incubated in a standard 37° C. in a 5.0% CO2, water-saturated environment. Cell counting was performed with a Beckman-Coulter Z2 particle counter and hemacytometer.
Solutions of the analogs in EtOH (10 mM stock) were coated onto 24-well plates at a range of concentrations from 0-320 μM and ethanol was allowed to evaporate. Jurkat cells (1.0×10^5 cells) in 0.5 mL of medium were plated in each well (day 0). On days 3 and 5, fresh medium (1.0 mL) was added to each well. Cell cultures were mixed by gentle pipetting and 100 μL of cell suspension was taken from each well and counted. On days 7, 9, 11, 13 and 15, 1.0 mL of cell suspension was removed from each well after thorough mixing and fresh medium (1.0 mL) was added. Cells were counted on day 15 and the cell density was plotted as a percentage of control (as was done for cell counts from days 3 and 5).

Jurkat cells [4] = experiment: Cell viability assay (trypan blue exclusion); type: cell-based, human; settings: 200 μM
Experimental: Jurkat cells (2.0×10^5 cells/mL) were seeded with 1-4 at 200 μM in 6-well T. C. plates. Aliquots of cell suspension (20 μL) were removed on a daily basis diluted with either PBS (20 μL) or trypan blue solution (20 μL) and cell viability was determined by using the standard trypan blue exclusion method; three replicate counts were taken for each condition.

Jurkat cells [5] = experiment: Flow cytometry analysis of cell cycle status (PI/RNase A); type: cell-based, human; settings: human cancer cells
Experimental: The cell cycle arrest induced by butyrate analogs was studied following the standard protocol (49). Briefly, Jurkat cells (2.3×10^5 cells/mL) were incubated with various concentrations of 1 (0, 25, 50, 75, 100, 150 and 200 μM); 2 (200 μM); 3 (200 μM); and 4 (200 μM) for five days. The cells were then harvested, counted, washed twice with PBS, re-suspended in PBS (500 μL), added to a cold solution of 78% aqueous ethanol (4.5 mL) using a glass Pasteur pipette and kept at 2.0° C. for at least 24 h. The fixed cells were centrifuged twice to remove the ethanol completely, re-suspended in propidium iodide (PI)/ribonuclease A (RNase A) staining buffer (BD Pharmingen, Catalog No. 550825, San Diego, Calif.) (500 μL for 1.0×10^6 cells), incubated at 37° C. for 15 min and analyzed by flow cytometry. The cellular aggregates were excluded from single cell populations using an area-width plot (FL2—PT fluorescence) for the cell cycle status determination. At least 10,000 gated events were counted for each determination.
Jurkat cells (2.5×10^5 cells/mL) were incubated with either ethanol (0.2%) or 1 (100 μM or 200 μM). Aliquots of cell suspensions were taken on day 0 and days 2-6, washed with PBS (twice) and fixed in 75% ethanol at 2.0° C. for at least 48 h. The cells were stained with PI/RNase staining buffer and analyzed by flow cytometry as given above.

HeLa cells = experiment: Morphological changes to HeLa cells; type: cell-based, human; settings: 3 days; 1 at 250 μM, 5 at 5.0 mM
Experimental: (§1) The studies on morphological changes induced by sodium butyrate (5) and But4ManNAc (1) were performed following a reported procedure (45). Briefly, HeLa cells (200,000 cells per well in a 6-well plate) were plated and allowed to form monolayers. After 24 h, the supernatant was aspirated, fresh medium (4.0 mL) was added and treated with either ethanol (20 μL (0.5%), control), 5 (5.0 mM), or 1 (250 μM). For the AD 293 (HEK) cells 2.0×10^6 cells in 10 mL of medium (100 mm tissue culture dishes) were plated and treated, immediately after plating, with either ethanol (50 μL, control), 5 (5.0 mM), or 1 (250 μM). Images were acquired at various time intervals under bright field using a Nikon Eclipse TE200 inverted microscope equipped with a DXM 1200 digital camera.

AD293 (HEK) cells = experiment: Morphological changes / toxicity in AD293 (HEK) cells; type: cell-based, human; settings: 2 days; 1 at 250 μM, 5 at 5.0 mM
Experimental: as §1

p21WAF1/Cip1 promoter = experiment: Luc-p21WAF1/Cip1 luciferase reporter gene assay in AD293 (HEK) cells; type: cell-based, human
Experimental: The plasmid Luc-p21^Cip1/WAF1 (a gift from Vogelstein Laboratory, JHMI, Baltimore, Md.) was amplified and purified utilizing a plasmid maxi kit (Cat. No. 12163. Qiagen, Valencia, Calif.) following the manufacturer's protocol. HEK cells (2.5×10^5) were seeded in 3.0 mL medium and grown in 6-well T. C. plates. Transfection was performed using lipofectamine 2000 (Cat. No. 11668-019, Invitrogen, Carlsbad, Calif.) following the protocol supplier's protocol. Cells were trypsinized 24 h after transfection and seeded at 250,000 cells per well with concentrations of 1-4 shown in FIG. 3a or 1, 5, and ManNAc plus 5 at the concentrations shown in FIG. 3c. After 72 h, the cells were trypsinized, counted and lysed in 300 μL of luciferase cell culture lysis buffer and diluted five-fold in the same buffer. Luminometry was performed utilizing the ‘Luciferase Assay System’ (Cat. No. 1500, 4550, Promega, Madison, Wis.) following supplier's protocol. Luciferase Assay Reagent (100 μL) was added to the cell lysate (20 μL) in luminometer tubes (Cat. No. 55.476, Sarstedt, Newton, N.C.) and the luminescence was measured immediately using a Berthold Sirius Luminometer. The final values were normalized relative to ethanol-treated controls and reported on a per cell basis.

p21WAF1 = experiment: Endogenous p21WAF1 assay (anti-p21WAF1 antibody, flow cytometry) in Jurkat cells; type: cell-based, human; settings: one week, 1 at 250 μM, 5 at 2.5 mM
Experimental: Endogenous expression of p21^WAF1 was detected following a reported procedure (58) with minor modifications. Jurkat cells (5.0×10^6 cells in 10 mL medium) were incubated with either ethanol or 1 (250 μM or 5 (2.5 mM). On a daily basis, aliquots of cells (˜1.0×10^6 per sample) were taken, washed with PBS (2×1.0 mL), fixed with Reagent A (Fix and Perm Kit, Caltag Laboratories, CA, Cat. No. GAS-003) for 10 min at room temperature, washed with washing buffer (PBS containing 5.0% FBS, 0.1% NaN3), re-suspended in 95% v/v methanol and kept on ice. After 30 min, cells were again washed with washing buffer and incubated with FITC-conjugated anti-p21^WAF1 antibody (Calbiochem, San Diego, Calif., Cat. No. OP64F) at 2.0 μg/mL in Reagent B (100 μL) (Fix and Perm Kit, Caltag Laboratories) for 1.0 h at room temperature in the dark. Finally, cells were re-suspended in washing buffer (500 μL) and analyzed by flow cytometry. Three replicate samples were taken for each condition and 10,000 events were counted for each sample.

| SMILES | level required for even partial cell inhibition and toxicity, when used separately (Jurkat cells [2]; Jurkat cells, day 15) | long term growth characteristics (day 15) (Jurkat cells [3]) | reduced cell viability in trypan blue assay (Jurkat cells [4]) | apoptosis versus cell cycle arrest (summary) (Jurkat cells [5]) | also measured |
| --- | --- | --- | --- | --- | --- |
| CC(=O)N[C@@H]1C(O)O[C@H](CO)[C@@H](O)[C@@H]1O (stereo partly drawn) [ManNAc, N-acetyl-D-mannosamine, reference compound] | 100 mM |  |  |  | increase in total sialic acid [1]: 20-30 fold |
| CCCC(=O)OC[C@H]1O[C@H](OC(=O)CCC)[C@H](NC(C)=O)[C@@H](OC(=O)CCC)[C@@H]1OC(=O)CCC [compound 2, 2-Acetamido-1,3,4,6-tetra-O-butanoyl-2-deoxy-α-D-glucopyranose] |  | resumed cell growth over the long term | not | only provided transient cell cycle arrest | melting point: 152 to 154 °C |
| CCCC(=O)OC[C@H]1OC(OC(=O)CCC)[C@@H](OC(=O)CCC)[C@@H](OC(=O)CCC)[C@@H]1OC(=O)CCC (stereo partly drawn) [compound 3, 1,2,3,4,6-Penta-O-butanoyl-α,β-D-mannopyranose] |  | resumed cell growth over the long term | not | only provided transient cell cycle arrest |  |
| CCCC(=O)OCC(COC(=O)CCC)OC(=O)CCC [compound 4, tributyrin, reference compound] |  | resumed cell growth over the long term |  | only provided transient cell cycle arrest | cell proliferation at early time points (days 3 & 5) (Jurkat cells [3]; days 3 and 5): minimal inhibition |
| CCCC(=O)[O-].[Na+] [compound 5, Sodium n-butyrate, reference compound] | 2.0 mm |  |  |  | morphological changes / differentiation of HeLa cells (HeLa cells): growth of extended processes; apoptosis / toxicity in AD293 cells (AD293 (HEK) cells): toxicity; concentration level required for p21WAF1/Cip1 activation (p21WAF1/Cip1 promoter): millimolar concentrations required; endogenous p21WAF1 levels (p21WAF1): increased p21^WAF1 levels; growth of ManNAc-treated cells compared to untreated controls (Jurkat cells [2]; Jurkat cells pre-incubated with ManNAc 50 or 100 mM, 5 at 0-2.0 mM, five days): inhibited; concentration at which ManNAc-treated cells showed susceptibility (Jurkat cells [2]; Jurkat cells pre-incubated with ManNAc, day 15): ≥ 2.0 mM; growth of control cells (without ManNAc) (Jurkat cells [2]; Jurkat cells, 5 at 0-2.0 mM, day 15): almost completely recovered from early inhibition |
